Results taken from patent US20120040998A1, “2-ALKYL PIPERIDINE MGLUR5 RECEPTOR MODULATORS” (priority 2009, published 2012).
Read-outs that look alike come from different tables or passages of the source.

Molecular target: T1, human mGluR5A (Homo sapiens, UniProt P41594)
T1 construct: expressed in transfected cells
Assay: FLIPR Ca2+ mobilization assay, potentiation in the presence of 300 nM glutamate (EC20)
Format: cell-based
Description: The utility of the compounds in accordance with the present invention as positive allosteric modulators of metabotropic glutamate receptor activity, in particular mGluR5 activity, may be readily determined without undue experimentation by methodology well known in the art, including O'Brien et al., Molecular Pharmacology 2003, 64(3) 731-740. In particular, the compounds of the following examples had activity in reference assays by enhancing mGluR5 activity. […] Changes in intracellular Ca^2+ were measured with Fluo-4AM ester (Invitrogen/Molecular Probes), which was detected on a Fluorometric Imaging Plate Reader (FLIPR, Molecular Devices, Sunnyvale, Calif.). In a typical experiment the mGluR5 positive allosteric modulatory activity of the compounds of the present invention was determined in accordance with the following experimental method.
Cell Culture: Chinese Hamster Ovary (CHO) cells expressing human mGluR5A were maintained in growth medium containing DMEM, 10% dialyzed Fetal Bovine Serum, 50 units/mL Penicillin, 50 ug/mL Streptomycin, 2 mM L-glutamine, 1×MEM non-essential amino acids, 1 mM sodium pyruvate, 25 mM HEPES, 55 uM 2-mercaptoethanol, 5 ug/mL Puromycin, and 250 ug/mL Zeocin at 37° C. and 5% CO2. The day before the experiment, the cells were washed and seeded in “plating media” containing only DMEM, 10% dialyzed Fetal Bovine Serum, 50 units/mL Penicillin, and 50 ug/mL Streptomycin at a density of 50,000 cells/well (100 uL/well) in black 384-well clear-bottom PDL-coated plates. The cells were grown overnight at 37° C. and 6% CO2. This overnight glutamine/glutamate starvation allowed for consistent expression of the mGluR5A receptor, and the ability to add a known amount of agonist (glutamate in most cases) on the day of the experiment.
Fluorescent Ca^2+ mobilization (FLIPR) assay: The day of the experiment, the cells were washed with 37° C. Assay Buffer (Hanks Balanced Salt Solution with CaCl2 and MgCl2, 20 mM HEPES, 2.5 mM Probenecid, 0.1% BSA) with an automated plate washer (3×100 uL, aspiration 3 mm from bottom leaving ˜30 uL of buffer in each well). After washing, 30 uL of dye loading buffer (4 uM Fluo-4AM, 0.04% Pluronic acid, and 1% dialyzed FBS in assay buffer) were added to each well of the plates for 2 uM Fluo-4AM final concentration. The plates were incubated at 37° C. and 6% CO2 for 1 hour to allow for dye loading. After dye loading, the cells were washed again as above, and placed on the FLIPR. Assays were conducted with two possible scenarios: 1) To determine the potencies of the compounds, as either agonists of mGluR5 or potentiators of mGluR5 in the presence of a sub-threshold amount of glutamate, 10-point titrations of the compounds (1:3 dilution between each point, 30-0.0015 uM final concentrations) were added to the cells, followed by the addition of the EC20 of glutamate (300 nM) to the cells. 2) To determine the cooperativity of the compounds with the natural agonist (glutamate), single concentrations of the compounds were added to the cells, followed by the addition of a 10-point titration of glutamate (1:3 dilution between each point, 1000-0.05 uM final concentrations). […] For both scenarios above, operation of the FLIPR was the same. Baseline fluorescence was monitored for 10 seconds, followed by the addition of compounds diluted in Assay Buffer (1% DMSO concentration after this addition, 0.66% final DMSO concentration after agonist addition). After monitoring fluorescence for 5 minutes, during which time any intrinsic agonist activity of the compounds would have been detected, the agonist (glutamate) also diluted in assay buffer was then added to the cells. The response was then monitored for an additional 3 minutes. In scenario #1, the peak during the final 3 minutes was used for potentiator data, and the peak during the 5 minutes post compound addition was used for compound agonist data. […]

[1] = potentiation in presence of 300 nM glutamate, read-out: EC50 in potentiating/enhancing the mGluR5 receptor in the FLIPR assay
[2] = potentiation, CHO cells expressing human mGluR5A, in presence of 300 nM glutamate, inflection points, read-out: FLIPR EC50

T1 sequence (P41594 21-1180 isoform P41594-2 limits assumed): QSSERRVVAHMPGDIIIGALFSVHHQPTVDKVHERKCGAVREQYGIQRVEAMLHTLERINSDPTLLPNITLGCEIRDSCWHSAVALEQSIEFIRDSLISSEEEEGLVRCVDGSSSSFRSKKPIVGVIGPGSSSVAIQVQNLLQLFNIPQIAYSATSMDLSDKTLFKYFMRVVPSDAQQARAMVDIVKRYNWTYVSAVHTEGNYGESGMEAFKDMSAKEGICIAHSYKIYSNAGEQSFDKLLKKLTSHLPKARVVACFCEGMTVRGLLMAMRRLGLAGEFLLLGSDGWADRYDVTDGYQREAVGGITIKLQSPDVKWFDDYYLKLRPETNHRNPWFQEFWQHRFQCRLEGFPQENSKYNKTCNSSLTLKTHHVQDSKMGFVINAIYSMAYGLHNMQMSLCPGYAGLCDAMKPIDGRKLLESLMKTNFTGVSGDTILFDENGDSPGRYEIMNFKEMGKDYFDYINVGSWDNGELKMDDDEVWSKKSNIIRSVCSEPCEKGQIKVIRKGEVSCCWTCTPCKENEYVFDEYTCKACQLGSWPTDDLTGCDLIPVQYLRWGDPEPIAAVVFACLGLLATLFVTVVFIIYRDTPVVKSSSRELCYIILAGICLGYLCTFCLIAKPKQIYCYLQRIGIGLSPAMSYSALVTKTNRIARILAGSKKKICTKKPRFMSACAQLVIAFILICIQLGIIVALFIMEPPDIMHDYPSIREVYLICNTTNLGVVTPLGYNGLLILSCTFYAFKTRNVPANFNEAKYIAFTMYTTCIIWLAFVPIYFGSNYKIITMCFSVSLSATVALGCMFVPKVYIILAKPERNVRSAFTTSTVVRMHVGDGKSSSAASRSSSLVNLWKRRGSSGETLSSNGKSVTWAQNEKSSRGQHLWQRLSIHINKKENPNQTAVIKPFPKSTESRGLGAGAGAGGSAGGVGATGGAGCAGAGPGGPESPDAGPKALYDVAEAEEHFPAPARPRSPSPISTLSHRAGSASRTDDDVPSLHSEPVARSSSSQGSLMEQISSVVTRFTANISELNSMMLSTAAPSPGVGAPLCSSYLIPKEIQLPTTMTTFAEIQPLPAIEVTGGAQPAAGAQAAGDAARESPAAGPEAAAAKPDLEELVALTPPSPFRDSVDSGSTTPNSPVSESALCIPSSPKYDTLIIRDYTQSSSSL

| Compound | EC50 [1] | EC50 [2] |
| --- | --- | --- |
| C[C@@H]1CC[C@H](c2noc(-c3cc(Cl)c[nH]3)n2)CN1C(=O)c1ccc(F)nc1 [Example 9-9, 5-({(2R,5S)-5-[5-(4-chloro-1H-pyrrol-2-yl)-1,2,4-oxadiazol-3-yl]-2-methylpiperidin-1-yl}carbonyl)-2-fluoropyridine] | < 1 µM | 0.146 µM |
| C[C@@H]1CC[C@H](c2nc(-c3cc(Cl)c[nH]3)no2)CN1C(=O)c1ccc(F)cc1 [Example 5-5, (2R,5S)-5-[3-(4-Chloro-1H-pyrrol-2-yl)-1,2,4-oxadiazol-5-yl]-1-(4-fluorobenzoyl)-2-methylpiperidine] | < 1 µM | 0.019 µM |
| C[C@H]1CC[C@@H](c2noc(-c3cc(Cl)c[nH]3)n2)CN1C(=O)c1ccc(F)cc1 [Example 2-3, (2S,5R)-5-[5-(4-chloro-1H-pyrrol-2-yl)-1,2,4-oxadiazol-3-yl]-1-(4-fluorobenzoyl)-2-methylpiperidine] | < 1 µM | 0.486 µM |
| C[C@@H]1CC[C@H](c2nc(-c3cc(Cl)c[nH]3)no2)CN1C(=O)c1ccc(F)nc1 [Example 9-18, 5-({(2R,5S)-5-[3-(4-chloro-1H-pyrrol-2-yl)-1,2,4-oxadiazol-5-yl]-2-methylpiperidin-1-yl}carbonyl)-2-fluoropyridine] | < 1 µM | 0.091 µM |
| COc1cc(C(=O)N2C[C@@H](c3nc(-c4cc(Cl)c[nH]4)no3)CC[C@H]2C)ccn1 [Example 9-22, 4-({(2R,5S)-5-[3-(4-chloro-1H-pyrrol-2-yl)-1,2,4-oxadiazol-5-yl]-2-methylpiperidin-1-yl}carbonyl)-2-methoxypyridine] | < 1 µM | 0.055 µM |

Now from value to molecule:

| EC50 [1] | EC50 [2] | Compound |
| --- | --- | --- |
| < 1 µM | 0.025 µM | C[C@@H]1CC[C@H](c2noc(-c3cc(Cl)c[nH]3)n2)CN1C(=O)c1ccc(F)cc1 [Example 2-4, (2R,5S)-5-[5-(4-chloro-1H-pyrrol-2-yl)-1,2,4-oxadiazol-3-yl]-1-(4-fluorobenzoyl)-2-methylpiperidine] |
| < 1 µM | 0.124 µM | C[C@@H]1CC[C@H](c2noc(-c3ccc(F)cc3)n2)CN1C(=O)c1ccc(F)cc1 [Example 1-16, (2R,5S)-1-(4-fluorobenzoyl)-5-[5-(4-fluorophenyl)-1,2,4-oxadiazol-3-yl]-2-methylpiperidine] |
| < 1 µM | 0.21 µM | C[C@@H]1CC[C@H](c2noc(-c3ccc(F)cn3)n2)CN1C(=O)c1ccc(F)cc1 [Example 4-4, 5-Fluoro-2-{3-[(3S,6R)-1-(4-fluorobenzoyl)-6-methylpiperidin-3-yl]-1,2,4-oxadiazol-5-yl}pyridine] |
